Assay results taken from PubChem BioAssay (NCI).
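Test compounds were applied to cells in 96-well plates for 48 hours at 5 doses. TGI: total growth inhibition.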 Where a SMILES comes first, the peptide text is derived from it. [ ]: non-standard residue; d: D form. β3hI = CC[CH](C)[CH](N)CC(=O)O

Columns and labels:
Assay in all cases: NCI anticancer screen, dose series, 48 h
CCRF-CEM leukemia = system: CCRF-CEM leukemia
HCT-116 colon = system: HCT-116 colon
HCT-15 colon = system: HCT-15 colon
HL-60(TB) leukemia = system: HL-60(TB) leukemia
NCI-H226 lung = system: NCI-H226 lung
NCI-H460 lung = system: NCI-H460 lung
OVCAR-3 ovarian = system: OVCAR-3 ovarian
SF-295 CNS = system: SF-295 CNS
SF-539 CNS = system: SF-539 CNS
SK-MEL-28 melanoma = system: SK-MEL-28 melanoma
SK-MEL-5 melanoma = system: SK-MEL-5 melanoma
SK-OV-3 ovarian = system: SK-OV-3 ovarian
U251 CNS = system: U251 CNS
UO-31 renal = system: UO-31 renal
DU-145 prostate = system: DU-145 prostate
EKVX NSCLC = system: EKVX NSCLC
MDA-MB-435 = system: MDA-MB-435
RXF 393 renal = system: RXF 393 renal

Row | SMILES | TGI (CCRF-CEM leukemia) [µM] | TGI (HCT-116 colon) [µM] | TGI (HCT-15 colon) [µM] | TGI (HL-60(TB) leukemia) [µM] | TGI (NCI-H226 lung) [µM] | TGI (NCI-H460 lung) [µM] | TGI (OVCAR-3 ovarian) [µM] | TGI (SF-295 CNS) [µM] | TGI (SF-539 CNS) [µM] | TGI (SK-MEL-28 melanoma) [µM] | TGI (SK-MEL-5 melanoma) [µM] | TGI (SK-OV-3 ovarian) [µM] | TGI (U251 CNS) [µM] | TGI (UO-31 renal) [µM] | TGI (DU-145 prostate) [µM] | TGI (EKVX NSCLC) [µM] | TGI (MDA-MB-435) [µM] | TGI (RXF 393 renal) [µM]
1 | O=C(Nc1c(O)[nH]c(=S)[nH]c1=O)c1ccc2ccccc2n1 | > 100 | > 100 | > 100 | > 100 | > 100 | > 100 | > 100 | > 100 | > 100 | > 100 | > 100 | > 100 | > 100 | > 100 | – | – | – | –
2 | CCOP(=O)(C=C=C(C)C)OCC | – | > 100 | > 100 | > 100 | > 100 | > 100 | > 100 | > 100 | > 100 | > 100 | > 100 | > 100 | > 100 | – | > 100 | > 100 | > 100 | > 100
3 | CCOC(=O)/C(=C/c1ccc(C#N)cc1)N(CC)CC | > 100 | > 100 | > 100 | > 100 | > 100 | > 100 | – | 30 | > 100 | > 100 | > 100 | > 100 | > 100 | > 100 | – | > 100 | – | –
4 | CC(C)NCC(O)c1ccc(OCc2ccccc2)c(OCc2ccccc2)c1-c1ccccc1 (stereo unspecified) | – | 3.17 | 3.22 | – | 4.28 | 3.49 | 3.22 | 3.55 | 2.98 | – | 2.5 | 3.16 | – | 7.82 | 3.14 | 32.3 | – | > 100
5 | COC(=O)[C@]1(C)CCC[C@@]2(C)C1CCC1=CC3(C(C)C)CCC12OO3 (stereo partly specified) | > 100 | > 100 | > 100 | 37.8 | > 100 | > 100 | > 100 | > 100 | > 100 | – | > 100 | > 100 | > 100 | > 100 | – | > 100 | – | –
6 | CCOC(=O)c1[nH]c2ccccc2c1C(=O)C[C@H](NC(=O)C(F)(F)F)C(=O)OC | > 100 | > 100 | > 100 | > 100 | > 100 | > 100 | > 100 | > 100 | > 100 | > 100 | > 100 | – | > 100 | > 100 | > 100 | > 100 | > 100 | –
7 | Cc1n[nH]c(=O)n1/N=C/c1c[nH]c2ccccc12 | > 100 | > 100 | > 100 | – | – | > 100 | > 100 | > 100 | > 100 | > 100 | – | > 100 | > 100 | > 100 | > 100 | > 100 | > 100 | 82.3
8 | CCCCCCCC/C=C\CCCCCCCC(=O)NCCN(CCN)C(=O)CCCCCCC/C=C\CCCCCCCC | > 100 | > 100 | > 100 | > 100 | > 100 | > 100 | > 100 | > 100 | – | > 100 | > 100 | > 100 | > 100 | > 100 | – | – | – | –
9 | CCC(C)C(CC(=O)N1CCCC1C(=O)NC(C(=O)NC(C(=O)NCC(=O)NC(CC(N)=O)C(=O)NC(C(=O)NC(C(=O)NC(CCCCN)C(N)=O)C(C)CC)C(C)CC)C(C)C)C(C)CC)NC(=O)C(N)C(C)CC (stereo not drawn) (H-I[β3hI]PIVGNIIK-NH2; configuration not given here) | > 50 | > 50 | > 50 | > 50 | > 50 | – | > 50 | > 50 | > 50 | > 50 | > 50 | > 50 | > 50 | > 50 | > 50 | > 50 | > 50 | –
10 | CCCCn1c2c(n(CCCC)c1=S)-c1c(n(CCCC)c(=S)n1CCCC)SSSS2 | > 100 | 11.8 | 4.45 | – | 80.8 | > 93.6 | 2.65 | > 100 | 2.94 | 31.6 | 8.95 | > 100 | 12.9 | 2.64 | > 35.3 | 23.2 | 23.9 | 14.6
11 | COc1ccc([C@H]2CC(=O)NCCCCN2)cc1 | > 100 | > 100 | > 100 | – | > 100 | > 100 | – | > 100 | > 100 | > 100 | > 100 | > 100 | > 100 | > 100 | – | > 100 | – | > 100
12 | Cc1ccc(Cl)c(NC(=O)C(=O)C(C(=O)c2ccncc2)C2OC(=O)c3ccccc32)c1 (stereo unspecified) | > 100 | > 100 | > 100 | > 100 | > 100 | > 100 | – | > 100 | > 100 | > 100 | > 100 | > 100 | > 100 | > 100 | – | > 100 | – | > 100
13 | COc1cccc(N2C(=O)CSC2c2cc(OC)c(OC)c(OC)c2)c1 (stereo unspecified) | 65 | > 100 | > 100 | 98 | 87.2 | > 100 | 66.2 | 97.8 | > 100 | > 100 | > 100 | > 100 | > 100 | > 100 | 39.7 | > 100 | 17.6 | –
14 | COC(=O)C(Cl)=C1CC1 | 42.2 | – | 57.6 | 51.3 | > 100 | > 100 | 65 | > 100 | 69.1 | 54.3 | 84.9 | > 100 | – | 89.9 | – | – | – | 35.8
15 | Oc1c(C2=N[C@H]3CCCC[C@@H]3N2)ccc2ccccc12 | > 100 | > 100 | > 100 | > 100 | > 100 | > 100 | > 100 | – | > 100 | > 100 | > 100 | > 100 | > 100 | > 100 | > 100 | > 100 | > 100 | –
16 | O=C(NC1=NC2C=CC([N+](=O)[O-])=CC2S1)C(=O)Nn1c(=S)[nH]c2ccccc2c1=O (stereo unspecified) | > 100 | > 100 | > 100 | > 100 | > 100 | > 100 | > 100 | > 100 | > 100 | > 100 | > 100 | > 100 | > 100 | > 100 | – | > 100 | > 100 | > 100
17 | COc1ccc2c(c1)OC[C@@H]1c3cc4c(cc3O[C@H]21)OCO4 | > 100 | > 100 | > 100 | > 100 | > 100 | > 100 | > 100 | > 100 | > 100 | > 100 | > 100 | > 100 | > 100 | > 100 | – | > 100 | – | > 100
18 | O=C(/C=C/c1ccco1)CC(=O)/C=C/c1ccco1 | 16.3 | 17.4 | 20.2 | 11.7 | – | 22.2 | – | – | 21.2 | 17.5 | 18.1 | – | 19.7 | 20.2 | – | > 31.6 | 22.1 | 10.6
19 | COc1nc2sc3c(c2c(=O)n1CCCSSCCCn1c(OC)nc2sc4c(c2c1=O)CCCC4)CCCC3 | > 100 | > 100 | > 100 | – | > 100 | – | – | > 100 | > 100 | > 100 | > 100 | > 100 | > 100 | > 100 | > 100 | > 100 | > 100 | > 100
20 | CC(NC(=O)OC(C)(C)C)C(=O)C(N)=O (stereo unspecified) | > 100 | > 100 | > 100 | > 100 | > 100 | > 100 | – | – | > 100 | > 100 | > 100 | > 100 | > 100 | > 100 | > 100 | > 100 | > 100 | –
21 | COc1cccc(/C=C2\CCCCCC2=O)c1 | – | > 100 | > 100 | – | > 100 | > 100 | > 100 | > 100 | – | > 100 | > 100 | > 100 | > 100 | > 100 | > 100 | > 100 | > 100 | –
22 | COc1ccc2oc(C(=O)N3CC(CCl)c4ccc([N+](=O)[O-])cc43)cc2c1 (stereo unspecified) | – | > 100 | – | – | 36.8 | > 100 | – | 69.6 | > 100 | > 100 | > 100 | 48.7 | > 100 | > 100 | > 100 | > 100 | > 100 | 34
23 | CC(C)OP(=O)(OC(C)C)C(=Nc1ccccc1)NNc1ccc([N+](=O)[O-])cc1 | 56.9 | 31.2 | > 100 | 46.2 | 84.9 | > 100 | > 100 | – | > 100 | 89.5 | 27.1 | – | 52.5 | > 100 | – | > 100 | – | –
24 | N#Cc1cc([N+](=O)[O-])ccc1NC(=O)C(=O)C(C(=O)/C=C/c1ccccc1)C1OC(=O)c2ccccc21 (stereo unspecified) | > 100 | > 100 | > 100 | > 100 | > 100 | > 100 | > 100 | > 100 | > 100 | > 100 | > 100 | > 100 | > 100 | > 100 | – | > 100 | – | > 100
25 | FC(F)(Sc1ccccc1)c1nc2ccccc2o1 | 55.5 | > 100 | > 100 | – | > 100 | > 100 | > 100 | > 100 | > 100 | > 100 | > 100 | 69.4 | > 100 | > 100 | > 100 | – | > 100 | > 100
26 | CCCCCCCCCCCCCCCCCCOCC(CO[P+](=O)O)OCCCCCCCCCCCCCCCCCC (stereo unspecified) | – | > 50 | > 50 | > 50 | > 50 | > 50 | > 50 | – | > 50 | > 50 | > 50 | > 50 | > 50 | – | > 50 | > 50 | > 50 | > 50
27 | COC(=O)C(Cc1ccccc1)OC(=O)C(N)CC(=O)O (stereo unspecified) | – | > 100 | > 100 | – | > 100 | > 100 | > 100 | > 100 | > 100 | > 100 | > 100 | > 100 | – | > 100 | > 100 | > 100 | > 100 | > 100
28 | CN(C)c1nc(NN)c2c(-c3ccccc3)c(-c3ccccc3)oc2n1 | > 100 | > 100 | > 100 | – | > 100 | – | – | > 100 | > 100 | > 100 | – | > 100 | > 100 | > 100 | > 100 | > 100 | > 100 | > 100
29 | COP1(=O)Oc2ccccc2C(=O)C(C(F)(F)F)(C(F)(F)F)O1 (stereo unspecified) | > 100 | > 100 | > 100 | > 100 | – | > 100 | – | > 100 | > 100 | > 100 | > 100 | > 100 | > 100 | > 100 | – | > 100 | – | > 100
30 | c1cncc(-c2ncc3cccnc3n2)c1 | > 100 | > 100 | > 100 | > 100 | > 100 | > 100 | > 100 | > 100 | > 100 | – | > 100 | > 100 | > 100 | > 100 | > 100 | > 100 | – | > 100
